Results as given in patent US5338868A, “Process for preparing alpha-amino-phenylacetic acid-trifluoromethane sulfonic acid mixed anhydrides” (Chinoin Gyogyszer- es Vegyeszeti Termekek Gyara Rt., priority 1989, dated 1994).

Experiment: Quality of the Dane salt during storage for 30 days
Assay type: physicochemical

| quality during storage (room temperature, air) | SMILES | quality after storage (stored at room temperature) |
| --- | --- | --- |
| does not change | CCOC(=O)C=C(C)N[C@@H](C(=O)O)c1ccc(O)cc1 [Example 9] |  |
|  | CCOC(=O)C=C(C)N[C@@H](C(=O)[O-])c1ccccc1.[Na+] [Example 15, sodium-D-N-(2-ethoxycarbonyl-1-methyl-vinyl)-α-amino-phenyl-acetate] | remains unchanged |
